Laboratory results as given in US11149055B2, “Crystal form of lanosterol prodrug compound and application thereof” (GUANGZHOU OCUSUN OPHTHALMIC BIOTECHNOLOGY CO., LTD., priority 2018, dated 2021).
Where two headings read alike, the source gives them in different places.

What was measured:
[1] = Hygroscopicity study by Dynamic Vapor Sorption (DVS); assay type: physicochemical; details: 25° C. and 80% RH
Description: Dynamic Vapor Sorption (DVS)
Detection method: samples (10 mg to 20 mg) were placed in a DVS sample tray for testing.
Equilibrium: dm/dt: 0.01%/min: (Shortest: 10 min, longest: 180 min)
RH (%) gradient for testing: 10%
RH (%) gradient range for testing: 0% to 90% to 0%
The hygroscopicity was evaluated using the following scales:
SMS DVS Advantage Dynamic Vapor Sorption System
10 to 15 mg of the crystal form A of the compound of formula (I) was placed in the DVS sample tray for testing.

[2] = Pre-stability experiment (influencing factors: high temperature, high humidity, light); assay type: physicochemical; details: 60° C. open; relative humidity 92.5% open; light 1 ICH; up to 10 days
Description: The crystal form A of the compound of formula (I) was placed under the following 3 conditions and tested for appearance, XRPD, content and related substances at different time points.
10 mg of the crystal form A of the compound of formula (I) was accurately weighted and placed in a sample bottle, and then spread to form a thin layer. The samples were placed under 60° C., 92.5% RH, the mouth of the bottle was directly wrapped with aluminum foil which was punctured to get some small holes to ensure that the sample can fully contact the ambient air. The samples were placed respectively in a dry box and a glass jar containing saturated potassium nitrate solution. The illuminated sample (open, not covered with aluminum foil) and the illuminated control sample (open, the sample bottle was entirely covered with aluminum foil) were placed in the light box. 2 parts of the sample were weighted at each time point as the formal test sample. In addition, about 5 mg of the crystal form A of the compound of formula (I) was weighted for XRPD testing; the sample bottle was wrapped with aluminum foil which was punctured to get some small holes; the samples were also placed in the corresponding drying box and the glass jar containing saturated potassium nitrate solution. […]

[3] = Penetration of ocular drugs in the body and conversion to lanosterol (aqueous humor concentration after eye drops); assay type: in vivo, New Zealand white rabbit; details: for AUC: New Zealand white, rabbit; for Penetration into the aqueous humor: from the cornea or through other routes
Description: In this study, New Zealand white rabbits (body weight was more than 2 kg, aged more than 12 weeks) were used as experimental animals. Each compound was studied in two New Zealand white rabbits. Each rabbit was instilled with 50 μL of eye drops in each eye, three eyes were used to collect aqueous humor samples and one eye was used as a backup. The formula of the eye drops was 1.2% hydroxypropyl methylcellulose (E5 size), 20.5% poloxamer (P407 size), 1.6% poloxamer (P188 size), the concentration of the compound was 5 mM, and the eye drops were homogeneous suspensions. After the eye drops were dripped into the rabbit's eyes, the anterior aqueous humor was collected 0.5, 2, 4 and 6 hours after administration. The volume of each sample was not more than 50 μL. Each animal was given mild anesthesia before collecting samples. Three samples were collected at each time point. The collected aqueous humor samples were stored in dry ice immediately after collection or stored in a refrigerator at −80±10° C. After the sample collection, the animals were euthanized. The concentration of the compound in each sample was determined using a triple quadrupole mass spectrometer (API 4000). Tables 3 and 4 show the DMPK determination conditions in vivo; Tables 5 and 6 show the drug concentration in the aqueous humor after compound lanosterol (parent drug) and the prodrug compound were dripped into eyes ([…]).

[4] = tested on: sodium selenite-induced neonatal New Zealand rabbit cataract model; assay: Slit lamp observation, sodium selenite-induced cataract model; assay type: in vivo; details: eye drops right eye 3 times every day for 42 days
Description: (§1) P7 days old neonatal New Zealand rabbits, normal grade, and 5 young rabbits per litter were breast-fed with a mother rabbit.
(§2) The experimental young rabbits were randomly divided into 5 groups with 5 rabbits per group.
(§3) 2) Model control group (MC): in the P10 day, the young rabbits were injected subcutaneously with sodium selenite solution (in physiological saline) at a dose of 20 μmol/kg body weight, and after the P15 day, drug-free blank eyes drops were dripped into the right eye 3 times every day for 42 days.
(§4) 3) Positive control group (PC): in the P10 day, the young rabbits were injected subcutaneously with sodium selenite solution (in physiological saline) at a dose of 20 μmol/kg body weight, and after the P15 day, Kary Uni eye drops (Santen Pharmaceutical Co., Ltd in Japan) were dripped into the right eye 3 times every day for 42 days.
(§5) 4) Lanosterol eye drops treatment group (LT): in the P10 day, the young rabbits were injected subcutaneously with sodium selenite solution (in physiological saline) at a dose of 20 μmol/kg body weight, and after the P15 day, lanosterol eye drops were dripped into the right eye 3 times every day for 42 days. […]

[5] = tested on: sodium selenite-induced neonatal New Zealand rabbit cataract model; assay: Lens transparency test in vitro, sodium selenite-induced cataract model; assay type: in vivo; details: after 42 days of administration, left eye as self-control
Description: as §1, §2, §3, §4, §5

[6] = tested on: lens glutathione peroxidase (GSH-PX) activity; assay: Lens glutathione peroxidase (GSH-PX) activity assay, sodium selenite-induced cataract model; assay type: in vivo, New Zealand rabbit; details: after 42 days of administration
Description: as §1, §2, §3, §4
4) Lanosterol eye drops treatment group (LT): in the P10 day, the young rabbits were injected subcutaneously with sodium selenite solution (in physiological saline) at a dose of 20 μmol/kg body weight, and after the P15 day, lanosterol eye drops were dripped into the right eye 3 times every day for 42 days.
5) Lanosterol prodrug 026 eye drops treatment group (026, the compound of formula (I)): in the P10 day, the young rabbits were injected subcutaneously with sodium selenite solution (in physiological saline) at a dose of 20 μmol/kg body weight, and after the P15 day, lanosterol prodrug 026 eye drops were dripped into the right eye 3 times every day for 42 days.
3) Glutathione peroxidase (GSH-PX) activity assay: GSH-PX activity of the isolated rabbit lens in each group was determined by the method provided in the specification of GSH-PX activity detection kit (Nanjing Jiancheng Bioengineering Institute). The experimental data was analyzed by One-Way ANOVA with SPSS statistical software. The LSD method was used to compare the groups, and the statistical difference level was p<0.05.

[7] = tested on: ultraviolet-induced New Zealand rabbit cataract model; assay: Slit lamp observation, ultraviolet-induced cataract model; assay type: in vivo; details: ultraviolet model (313 nm UV 24 hours); eye drops right eye 3 times every day for 42 days
Description: (§6) Adult New Zealand rabbits 2.0-2.5 kg, normal grade, male and female, a total of 25.
(§7) The experimental rabbits were randomly divided into 5 groups with 5 rabbits per group.
(§8) 2) Model control group (MC): 313 nm UV irradiation for 24 hours to make model, then drug-free blank eye drops were dripped into the right eye 3 times every day for 42 days.
(§9) 3) Positive control group (PC): 313 nm UV irradiation for 24 hours to make model, then Kary Uni eye drops (Santen Pharmaceutical Co., Ltd in Japan) were dripped into the right eye 3 times every day for 42 days.
(§10) 4) Lanosterol eye drops treatment group (LT): 313 nm UV irradiation for 24 hours to make model, then lanosterol eye drops were dripped into the right eye 3 times every day for 42 days.
(§11) 5) Lanosterol prodrug 026 eye drops treatment group (026): 313 nm UV irradiation for 24 hours to make model, then the lanosterol prodrug 026 eye drops were dripped into the right eye 3 times every day for 42 days.

[8] = tested on: ultraviolet-induced New Zealand rabbit cataract model; assay: Lens transparency test in vitro, ultraviolet-induced cataract model; assay type: in vivo; details: after 42 days of administration, left eye as self-control
Description: as §6, §7, §8, §9, §10, §11
2) Lens transparency test in vitro: on the last day, the animal's eyeball was dissected, the lens containing the capsule was completely separated, and the lens was placed on a grid paper (2.12×2.12 mm). The photographs show the sharpness of the grid photographed through the lens.

[9] = tested on: lens glutathione peroxidase (GSH-PX) activity; assay: Lens glutathione peroxidase (GSH-PX) activity assay, ultraviolet-induced cataract model; assay type: in vivo, New Zealand rabbit; details: after 42 days of administration
Description: as §6, §7, §8, §9, §10, §11
3) Glutathione peroxidase (GSH-PX) activity assay: GSH-PX activity of the isolated rabbit lens in each group was determined by the method provided in the specification of GSH-PX activity detection kit (Nanjing Jiancheng Bioengineering Institute). The experimental data were analyzed by One-Way ANOVA with SPSS statistical software. The LSD method was used to compare the groups, and the statistical difference level was p<0.05.

Compound	Hygroscopic weight gain (ΔW) [1] [%]	Hygroscopicity scale [1]	Crystal form stability (appearance, XRPD, content, related substances) [2]	AUC ([3]; aqueous humor, topical, 250 nmol per eye, 250 nmol lanosterol dripped into each eye, read-out: AUC (exposure amount) of lanosterol in the aqueous humor) [µM·h]	Penetration into the aqueous humor ([3]; eye drops)	Cataract symptoms by slit lamp observation, after vs before administration [4]	Lens transparency in vitro of administered right eye [5]	Effect on lens GSH-PX activity compared with the other treatments [6]	Lens GSH-PX activity vs MC group [6]	Cataract symptoms by slit lamp observation, after vs before administration [7]	Lens transparency in vitro of administered right eye [8]	Effect on lens GSH-PX activity compared with the other treatments [9]	Lens GSH-PX activity vs MC group [9]	Average concentration of the compound of formula (I) in the aqueous humor ([3]; 250 nmol the compound of formula (I) dripped into each eye, analyte prodrug, 0.5 hour) [nM]	Average concentration of the compound of formula (I) in the aqueous humor ([3]; 250 nmol the compound of formula (I) dripped into each eye, analyte prodrug, 2 hour) [nM]	Average concentration of the compound of formula (I) in the aqueous humor ([3]; 250 nmol the compound of formula (I) dripped into each eye, analyte prodrug, 4 hour) [nM]	Average concentration of the compound of formula (I) in the aqueous humor ([3]; 250 nmol the compound of formula (I) dripped into each eye, analyte prodrug, 6 hour)	AUC ([3]; in vivo, 250 nmol the compound of formula (I) dripped into each eye, analyte prodrug, read-out: AUC (exposure amount) of the compound of formula (I) in the aqueous humor) [µM·h]	Conversion into the parent drug lanosterol ([3]; during the infiltration process)	Lanosterol concentration and exposure in the aqueous humor compared with lanosterol eye drops ([3]; eye drops)
CC(C)=CCC[C@@H](C)[C@H]1CC[C@@]2(C)C3=C(CC[C@]12C)[C@@]1(C)CC[C@H](OC(=O)c2ccccc2O)C(C)(C)C1CC3 (some centres unmarked)	0.747	slightly hygroscopic	the crystal form has not changed after the experiment, and its stability is good																	
CC(C)=CCC[C@@H](C)[C@H]1CC[C@@]2(C)C3=C(CC[C@]12C)[C@@]1(C)CC[C@H](O)C(C)(C)[C@@H]1CC3 [Lanosterol]				1.78	capable of penetrating into the aqueous humor	no evident change	no significant change in lens transparency	significantly lower than that of 026 and Kary Uni	no statistical difference compared to the MC group	no evident change	no significant change in lens transparency	significantly lower than that of 026 and Kary Uni	no statistical difference compared to the MC group							
CC(C)=CCC[C@@H](C)[C@H]1CC[C@@]2(C)C3=C(CC[C@]12C)[C@@]1(C)CC[C@H](OC(=O)c2ccccc2O)C(C)(C)C1CC3 (some centres unmarked) [the compound of formula (I)]					capable of penetrating into the aqueous humor	cataract symptoms were significantly reduced	significantly higher than that of the left eye	better than that of Kary Uni	capable of increasing the GSH-PX activity of the lens	cataract symptoms were significantly reduced	significantly higher than that of the left eye	better than that of Kary Uni	capable of increasing the GSH-PX activity of the lens	41.0	33.3	25.5	BQL	0.124	capable of converting into the parent drug lanosterol	higher concentration and exposure of lanosterol in the aqueous humor
